Measured values from patent publication US6803186B2, “Compositions and methods for increasing amino acid absorption in mammals” (The IAMS Company, priority 2001, dated 2004).
Square brackets hold non-standard residues; d marks the D form. Peptide text beside a SMILES is read from it. Sar = CNCC(=O)O

Target: T1, canine PepT1 (cPepT1) (Canis lupus familiaris, UniProt Q8WMX5)
T1 construct: endogenous in cells; host or cells: MDCK (Madin-Darby Canine Kidney) cells, whole-cell [3H]-GlySar uptake
T1 sequence (Q8WMX5 1-708): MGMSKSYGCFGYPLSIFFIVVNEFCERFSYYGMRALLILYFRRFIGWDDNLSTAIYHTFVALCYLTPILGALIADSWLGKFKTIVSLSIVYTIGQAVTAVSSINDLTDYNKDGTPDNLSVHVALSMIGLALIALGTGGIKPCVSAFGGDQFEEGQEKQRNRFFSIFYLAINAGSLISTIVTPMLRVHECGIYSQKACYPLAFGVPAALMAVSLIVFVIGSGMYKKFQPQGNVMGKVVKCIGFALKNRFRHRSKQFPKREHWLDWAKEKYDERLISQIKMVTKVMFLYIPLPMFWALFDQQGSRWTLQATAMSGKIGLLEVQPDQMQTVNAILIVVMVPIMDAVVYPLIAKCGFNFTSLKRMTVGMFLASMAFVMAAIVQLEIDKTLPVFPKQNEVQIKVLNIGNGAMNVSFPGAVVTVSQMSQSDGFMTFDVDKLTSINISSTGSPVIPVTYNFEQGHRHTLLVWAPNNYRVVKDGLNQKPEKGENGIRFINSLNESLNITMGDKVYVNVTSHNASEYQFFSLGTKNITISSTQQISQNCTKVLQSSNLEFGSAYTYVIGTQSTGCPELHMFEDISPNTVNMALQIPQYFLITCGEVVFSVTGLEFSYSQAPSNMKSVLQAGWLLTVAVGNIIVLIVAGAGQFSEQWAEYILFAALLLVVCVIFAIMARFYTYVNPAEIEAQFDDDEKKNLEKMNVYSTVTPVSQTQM
Assay: Characterization of GlySar uptake by MDCK cells (Km, pH gradient, time course)
Assay type: cell-based
Details: for GlySar uptake in pH 6.0 buffer relative to pH 7.4 buffer: 100 μM GlySar
Experimental: Potential expression of PepT1 transport activity (H^+-dependent, dipeptide inhibitable, low-affinity dipeptide transport) by confluent MDCK cells was evaluated using whole-cell transport techniques and glycylsarcosine (GlySar) as a model dipeptide substrate. Cells were seeded at 60,000 cells/cm^2 into 24-well trays that had been coated with rat tail collagen or poly-L-lysine and cultured ([…]:5% CO2 at 37° C.) for 3 d in media consisting of Dulbecco's Modified Eagle Medium/10% fetal calf serum/1% antimicrobial antibacterial medium. Absorption (pmols/mg protein) of [^3H]-glycyl-L-sarcosine (GlySar, 6 mCi/mL, Moravek Biochemicals, Brea, Calif.) was determined using the 24-well cluster tray method and representative scintillation counting. Before transport, cells were incubated at 37° C. for 30 min in 25 mM Hepes/Tris (pH 7.5), 140 mM NaCl, 5.4 mM KCl, 1.8 mM CaCl2, 0.8 mM MgSO4, and 5 mM glucose (uptake buffer) to normalize intracellular amino acid and peptide pools. Transport was initiated by the addition of 0.25 mL of uptake buffer that contained 2.88 μm GlySar. After 30 min of uptake at 37° C., transport was terminated by rapid washing of cells with 4×2 mL 4° C. uptake buffer. Cellular protein was precipitated with 10% trichloroacetic acid and the supernatant recovered and counted to determine radioactivity (^3H) content. Cellular protein was then solubilized in 0.2 N NaOH and 0.2% SDS and quantified by the Lowry procedure, using bovine serum albumin as a standard. The amount of H^+-dependent GlySar absorbed was calculated as the difference between uptake in pH 6.0 and pH 7.5 uptake buffers. The amount of competitor substrate-inhibitable GlySar uptake was calculated as the quotient of GlySar uptake in the absence and presence of 10 mM competitor substrate (dipeptide or amino acid) multiplied by 100%.
To preliminarily characterize the kinetic parameters of peptide transport by MDCK cells, the uptake of GlySar in media that contained pH 6.0 and 0.00064, 0.0025, 0.010, 0.04, 0.160, 0.640, 2.56, or 10.2 mM of GlySar was measured (FIG. 6). […] Collectively, these characteristics of GlySar uptake are consistent with functional activity of PepT1 expressed by other species, as opposed to high-affinity, H^+-dependent uptake by PepT2 (μm Km).
Using the maximal uptake-stimulating culture parameters determined in Experiment 3, the effect of an extracellular-to-intracellular pH gradient on GlySar uptake was further evaluated to determine a pH level at which maximal GlySar uptake could be achieved, but which would replicate physiologic conditions (FIG. 10). As expected, the presence of a pH gradient stimulated (P<0.001) H^+-dependent GlySar uptake, in a quadratic (P<0.01) fashion. Uptake at pH 5.5 or 6.0 was about 2.7 times greater than that achieved at pH 7.5. […] Accordingly, the use pH 6.0 buffers for the characterization of H^+-dependent GlySar uptake was incorporated into the standard experimental conditions.
To determine the appropriate time period to measure initial (linear) rates of GlySar uptake, a by-minute time-course experiment was performed. […] GlySar uptake in pH 6.0 buffer at 3.75, 7.5, 15, 30, 60 and 120 min was about 2, 2.1, 2.25, 2.65, 2.79, and 2.62 times more (P<0.001), respectively, than uptake from pH 7.4 buffer. Because uptake was proportional to time of uptake through 1 h, future experiments were conducted using a 30-min time period.
To confirm that H^+-dependent GlySar uptake was saturable, and therefore mediated, the uptake of GlySar from pH 6.0 and 7.4 uptake buffers containing 0.025, 0.1, 0.4, 1.6, 6.4, or 25.6 mM GlySar was evaluated (FIG. 12). Uptake of GlySar was greatest (P<0.001) from the pH 6.0 buffers, at all concentrations.

- H+-dependent GlySar uptake at pH 5.5 or 6.0 relative to pH 7.5 (2.88 μM GlySar, LHM 2 days (FIG. 10)): about 2.7 times
- GlySar uptake in pH 6.0 buffer relative to pH 7.4 buffer (3.75 min): about 2 times
- GlySar uptake in pH 6.0 buffer relative to pH 7.4 buffer (7.5 min): ~2.1 times
- GlySar uptake in pH 6.0 buffer relative to pH 7.4 buffer (15 min): ~2.25 times
- GlySar uptake in pH 6.0 buffer relative to pH 7.4 buffer (30 min): ~2.65 times
- GlySar uptake in pH 6.0 buffer relative to pH 7.4 buffer (60 min): ~2.79 times
- GlySar uptake in pH 6.0 buffer relative to pH 7.4 buffer (120 min): ~2.62 times
- GlySar uptake at extracellular pH 6.0 relative to pH 7.5 medium (cells grown on poly-L-lysine): 1.7 fold
- GlySar uptake at extracellular pH 6.0 relative to pH 7.5 medium (cells plated on collagen): 2.3 fold
SMILES: CN(CC(=O)O)C(=O)CN [GlySar, glycylsarcosine] (H-Gly-[Sar]-OH)
